According to US20070043122A1, “Use of 2,2,3,3, tetramethylcyclopropane carboxylic acid derivatives for treating psychiatric disorders” (YISSUM RESEARCH DEVELOPMENT CO. OF THE HEBREW UNIVERSITY OF …, priority 2003, published 2007):
pKi: −log10 of the molar value. Like-named read-outs stand apart in the source and are kept apart here.

Experiments:
human brain MIP synthase = biological target: T1, human brain MIP synthase (Homo sapiens, UniProt Q9NPH2); test: Human brain MIP synthase activity in postmortem prefrontal cortex homogenate; format: biochemical; conditions: for pKi: human brain homogenate; for inhibited MIP synthase activity (which of the other psychotropic drugs): at concentrations 1.5 times greater than their upper therapeutic range (concentrations in Table 2)
T1 construct: supernatant fraction obtained after sonication; from tissue; host or cells: postmortem human prefrontal cortex, 9,000 x g supernatant of sonicated homogenate
T1 sequence (Q9NPH2 1-558): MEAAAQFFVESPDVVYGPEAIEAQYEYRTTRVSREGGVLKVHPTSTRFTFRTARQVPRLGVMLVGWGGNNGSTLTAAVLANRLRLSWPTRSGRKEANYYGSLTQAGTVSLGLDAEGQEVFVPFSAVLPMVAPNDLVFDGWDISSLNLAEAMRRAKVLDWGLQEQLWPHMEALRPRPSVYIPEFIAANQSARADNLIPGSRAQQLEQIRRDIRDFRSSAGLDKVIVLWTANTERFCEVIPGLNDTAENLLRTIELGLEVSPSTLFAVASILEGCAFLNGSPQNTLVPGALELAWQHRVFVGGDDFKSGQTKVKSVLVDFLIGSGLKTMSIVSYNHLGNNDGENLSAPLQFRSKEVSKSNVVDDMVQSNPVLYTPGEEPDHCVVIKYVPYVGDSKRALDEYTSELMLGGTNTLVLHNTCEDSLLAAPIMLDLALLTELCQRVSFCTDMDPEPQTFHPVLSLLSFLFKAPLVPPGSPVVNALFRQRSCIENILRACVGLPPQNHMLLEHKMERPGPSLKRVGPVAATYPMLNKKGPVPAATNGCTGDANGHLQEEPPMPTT
Protocol: Human brain MIP synthase activity. Five μl of the supernatant fraction obtained after sonication (Ultrasonic Processor, Newtown, Conn., 15 sec at 0.1 output watts at 4° C.) and centrifugation for 20 min at 9,000×g at 4° C. of postmortem human prefrontal cortex (1 mg wet weight in 0.5 ml of 50 mM Tris HCl, pH 7.4) were added to 20 μl reaction mixture containing 4 mM D-glucose-6-phosphate, 1.25 μCi D-glucose-6-phosphate [^14C], 1.6 mM NAD^+, 0.45 mM KCl, 5.4 mM MgCl2 and 0.9 mM Tris HCl, pH 7.6, with or without 5 mU IMPase (Sigma, St. Louis). Incubation with or without various drugs concentrations (table 2 and table 3) was carried out for 3 hours (within the linear range) at 37° C. The reaction was stopped by adding 50 μl cold double distilled water (ddH20). Seventy out of the 80 μl were added to test tubes containing 1.25 g strong basic anion resin (Amberjet 4200, Rohm and Haas, Philadelphia) in 1 ml ddH2O. The mixtures were vortexed for 10 min, then centrifugated for 10 min at 10,000×g at room temperature, and 200 μl supernatant taken for ^14C counting (Liquid Scintillation Counter, Kontron, Basel). The enzymatic activity was calculated by subtracting values without IMPase from the measures with IMPase. The measurements were carried out in triplicate.
Table 2 details the drugs and their concentrations compared with their therapeutic concentrations, studied for possible inhibition of human brain MIP synthase activity. Each drug was tested twice, each experiment in triplicate.

[1] = system: neural tube defects (NTDs); conditions: in vivo; cited from earlier work
[2] = system: frontal cortex inositol levels; test: Frontal cortex inositol levels in mice after a single dose of VPA (gas chromatography); format: in vivo; conditions: acute, single IP dose 300, 600, 800 mg/kg, sacrificed one hour after injection; all concentrations tested
Protocol: (§1) Animals. The study was approved by the Ben-Gurion University (Beer Sheva, Israel) Institutional Review Committee for the Use of Animals, and the procedures were carried out in compliance with the declaration of the National Institute of Health Guide for care and use of laboratory animals [Council N R, editor. Guide for the care and use of laboratory animals. Washington, D.C.: National Academy Press; 1996]. […] J Neurochem 1999; 72(2):879-82] which approximate therapeutically-relevant plasma levels. […] Prog Neurobiol 1999; 58(1):31-59]. One saline-injected group was sacrificed right after the injection. All other four groups were sacrificed one hour after the injection. Frontal cortex was removed from all mice right after sacrifice and frozen (−70° C.) till further processing. […] Mice of group II (n=13, controls) were injected saline (IP) twice a day. Animals were then sacrificed, brain removed and dealt as above.
Gas chromatographic measurement of brain inositol levels. Mouse brain free inositol levels were analyzed as trimethylsilyl (TMS) derivatives by gas-liquid chromatography (GC), as described in Shapiro J et al [Shapiro J, Belmaker R H, Beigon A, Seker A, Agam G. Scyllo-Inositol in Post-Mortem Brain of Suicide Victims, Bipolar, Unipolar and Schizophrenic Patients. J Neural Transm 2000; 107: 603-607] using a capillary column. […] Replicate reliability was tested in rat brain. […]

[3] = system: growth cones of newborn rat dorsal root ganglia (DRG) cells; conditions: reversed by addition of myo-inositol; cited from earlier work
IMPase = biological target: T2, IMPase (Homo sapiens, UniProt P29218); conditions: cited from earlier work
T2 sequence (P29218 1-277): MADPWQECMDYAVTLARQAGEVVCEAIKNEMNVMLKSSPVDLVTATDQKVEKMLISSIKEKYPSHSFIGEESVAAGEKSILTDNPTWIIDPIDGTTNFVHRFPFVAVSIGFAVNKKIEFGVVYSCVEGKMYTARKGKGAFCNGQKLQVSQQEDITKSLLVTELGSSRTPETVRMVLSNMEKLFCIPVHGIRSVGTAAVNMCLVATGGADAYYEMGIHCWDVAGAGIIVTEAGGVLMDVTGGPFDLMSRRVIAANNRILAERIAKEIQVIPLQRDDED

[4] = system: whole brain inositol levels; test: Whole brain inositol levels in mice after chronic VPA administration; format: in vivo; conditions: for mice whole brain inositol levels: means ± S.E.M.
Protocol: as §1
Gas chromatographic measurement of brain inositol levels. Mouse brain free inositol levels were analyzed as trimethylsilyl (TMS) derivatives by gas-liquid chromatography (GC), as described in Shapiro J et al [Shapiro J, Belmaker R H, Beigon A, Seker A, Agam G. Scyllo-Inositol in Post-Mortem Brain of Suicide Victims, Bipolar, Unipolar and Schizophrenic Patients. J Neural Transm 2000; 107: 603-607] using a capillary column. […] Replicate reliability was tested in rat brain. […] Each sample extract was assayed at least in duplicate. The results presented are the average of the replicates. Assays were performed in a blind and balanced design such that each run included samples from all comparison groups.

[5] = 400 mg/kg/day IP twice daily for 9 or 28 days; cited from earlier work
growth cones of rat DRGs = test: Growth cone spreading in rat neuron DRG explants; format: cell-based; conditions: 1 mM, 24 hour exposure
Protocol: Rat neuron DRG (dorsal root ganglia) explants. […] After 24 hours for attachment, cytosine β-arabinofuranoside (ara-C, 10 μM) was added for 24 hours to kill non-neuronal cells. […] The explants were then fixed in 4% paraformaldehyde in PBS (Phosphate buffered saline) for 20 minutes at room temperature. Growth cones were analysed on an inverted microscope (Zeiss Axiovert) and measured using an NIH Image software.

CNC(=O)C1C(C)(C)C1(C)C [M-TMCD, N-methyl-2,2,3,3-tetramethylcyclopropanecarboxamide]
inhibition at 1300 µM (human brain MIP synthase; read-out: Inhibition of human brain MIP synthase activity): 93% | teratogenicity [1]: lack of teratogenicity

CCCC(CCC)C(=O)O [VPA, valproic acid]
reduction in frontal cortex inositol concentration [2]: 20% | effect on spreading of growth cones of newborn rat DRG cells [3]: increased spreading | inhibition at 1000 µM (human brain MIP synthase; 1.0 mM): 100% | pKi (human brain MIP synthase; read-out: Ki for MIP synthase (Dixon's plot)): 3.68 | pKi (human brain MIP synthase; read-out: Ki for MIP synthase (Lineweaver-Burk plot)): 3.62 | effect on IMPase activity (IMPase): no effect | mice whole brain inositol levels ([4]; IP injection of VPA twice a day, 400-800 mg/kg/day, fourteen days): 27.9 ± 3.2 | mice whole brain inositol levels ([4]; VPA in drinking water (12.5 g/liter) for 11 days): 30.1 ± 1.7 | effect of chronic VPA on brain inositol levels ([4]; eleven days in drinking water or 14 days IP injection): did not deplete brain inositol levels | blood VPA levels [5]: 0.27 ± 0.02 mM

CCCC(CCC)C(N)=O [VPD, valpromide]
inhibition at 1400 µM (human brain MIP synthase; 1.4 mM): 34% | effect on growth cone spreading of DRGs (growth cones of rat DRGs): no increased growth cone spreading

NC(=O)N1c2ccccc2C=Cc2ccccc21 [carbamazepine]
effect on spreading of growth cones of newborn rat DRG cells [3]: increased spreading | inhibited MIP synthase activity (which of the other psychotropic drugs) (human brain MIP synthase): None

CN(C)CCCN1c2ccccc2Sc2ccc(Cl)cc21 [chlorpromazine]
inhibited MIP synthase activity (which of the other psychotropic drugs) (human brain MIP synthase): None

CN(C)CCCN1c2ccccc2CCc2ccc(Cl)cc21 [clomipramine]
inhibited MIP synthase activity (which of the other psychotropic drugs) (human brain MIP synthase): None

O=C(CCCN1CCC(O)(c2ccc(Cl)cc2)CC1)c1ccc(F)cc1 [haloperidol]
inhibited MIP synthase activity (which of the other psychotropic drugs) (human brain MIP synthase): None

CN(C)CCCN1c2ccccc2CCc2ccccc21 [imipramine]
inhibited MIP synthase activity (which of the other psychotropic drugs) (human brain MIP synthase): None

O=C1NC(=O)C(c2ccccc2)(c2ccccc2)N1 [phenytoin]
inhibited MIP synthase activity (which of the other psychotropic drugs) (human brain MIP synthase): None
